Measured values taken from the supplement of paper PMC5579334.
± gives the standard deviation of the averaged measurements.

What was measured:
[1] = system: HS-PSS; test: drug sensitivity score (DSS, CellTiter-Glo viability, 72 h) (DSS (dimensionless)); higher = more sensitive; extreme values may be limits of the assay
How it was run: (§1)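 After seeding 750–1000 cells per well of MPNST cell lines or primary human Schwann cells into 384-well plates preprinted with each compound at five concentrations in 10-fold steps, plates were kept 72 h at 37 °C, 5% CO2. Viability was read as CellTiter-Glo ATP luminescence relative to vehicle and positive-control wells, with duplicates averaged where present. The data were fitted with four-parameter logistic models. Drug sensitivity score and relative IC50, censored at the top concentration, derive from the fits, and percent inhibition refers to the top concentration.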

[2] = system: HS-Sch-2; test: as above
How it was run: as §1

[3] = system: HSC1 (primary human Schwann cells); test: as above
How it was run: as §1

[4] = system: HSC2 (primary human Schwann cells); test: as above
How it was run: as §1

[5] = system: S1507-2; test: as above
How it was run: as §1

[6] = system: S462; test: as above
How it was run: as §1

[7] = system: ST8814; test: as above
How it was run: as §1

[8] = system: STS26T; test: as above
How it was run: as §1

[9] = system: YST-1; test: as above
How it was run: as §1

[10] = system: HS-PSS; test: drug sensitivity score (DSS, CellTox-Green cytotoxicity, 72 h) (DSS (dimensionless)); higher = more cytotoxic; extreme values may be limits of the assay
How it was run: (§2)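 For 72 h at 37 °C, MPNST cell lines and primary human Schwann cells were exposed in 384-well plates to five 10-fold compound dilutions. CellTox-Green, added before seeding at a final 1:1000 dilution, gave fluorescence from DNA released by disrupted cells. Signals were scaled to vehicle and positive-control wells, cultures failing plate quality control were left out, and four-parameter logistic fits were applied. Relative IC50 and drug sensitivity score were derived from the fits, with IC50 censored at the top concentration.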

[11] = system: HSC1 (primary human Schwann cells); test: as above
How it was run: as §2

[12] = system: HSC2 (primary human Schwann cells); test: as above
How it was run: as §2

[13] = system: S1507-2; test: as above
How it was run: as §2

[14] = system: ST8814; test: as above
How it was run: as §2

[15] = system: STS26T; test: as above
How it was run: as §2

[16] = system: HS-PSS; test: % inhibition of CellTiter-Glo viability at highest tested concentration (72 h), relative to DMSO and benzethonium chloride controls; higher = more inhibition
How it was run: as §1

[17] = system: HS-Sch-2; test: as above
How it was run: as §1

[18] = system: HSC1 (primary human Schwann cells); test: as above
How it was run: as §1

[19] = system: HSC2 (primary human Schwann cells); test: as above
How it was run: as §1

[20] = system: S1507-2; test: as above
How it was run: as §1

[21] = system: S462; test: as above
How it was run: as §1

[22] = system: ST8814; test: as above
How it was run: as §1

[23] = system: STS26T; test: as above
How it was run: as §1

[24] = system: YST-1; test: as above
How it was run: as §1

Compound	drug sensitivity score [1]	drug sensitivity score [2]	drug sensitivity score [3]	drug sensitivity score [4]	drug sensitivity score [5]	drug sensitivity score [6]	drug sensitivity score [7]	drug sensitivity score [8]	drug sensitivity score [9]	drug sensitivity score [10]	drug sensitivity score [11]	drug sensitivity score [12]	drug sensitivity score [13]	drug sensitivity score [14]	drug sensitivity score [15]	% inhibition [16]	% inhibition [17]	% inhibition [18]	% inhibition [19]	% inhibition [20]	% inhibition [21]	% inhibition [22]	% inhibition [23]	% inhibition [24]
Nc1nc(OCc2cc(Br)cs2)c2[nH]cnc2n1 [Lomeguatrib] (max concentration tested 10000 nM)	0.77	0	0	0	0	0	0	0	0	0	0	0	0	0	0	15.1%	-6.3%	-5.66%	-5.93%	-7.24 ± 3.2%	-14 ± 0.99%	-0.939%	-6.97%	-1.6%
CN1CC[C@H](c2c(O)cc(O)c3c(=O)cc(-c4ccccc4Cl)oc23)[C@H](O)C1 [Alvocidib] (max concentration tested 10000 nM)	20.4	20.6	18	17.9	15.5 ± 0.93	21.1 ± 0.91	17.8	20.1	20.5	4.23	8.24	11.7	2.61 ± 3.7	4.45	10.1	83.7%	101%	85.4%	89.1%	81.118 ± 0.0062%	99.41 ± 0.97%	79.8%	95.8%	97.8%
COc1cc2c(NC3CCN(C(C)C)CC3)nc(C3CCCCC3)nc2cc1OCCCN1CCCC1 [UNC0638] (max concentration tested 10000 nM)	8.75	7.32	0.362	0.116	8.72 ± 0.32	6.31 ± 2.1	6.45	5.05	6.1	6.72	0	0	23.4 ± 25	7.41	5.16	101%	101%	21.5%	14.9%	99.6 ± 1%	98.9 ± 1.6%	98.6%	99.1%	100%
CC(C)C[C@@H](C(=O)N[C@H](C(=O)OC1CCCC1)c1ccccc1)[C@H](O)C(=O)NO [Tosedostat] (max concentration tested 10000 nM)	0.92	11	9.82	12.3	3.83 ± 0.36	8.03 ± 0.91	2.24	18.2	4.41	0	0	0	10.4 ± 9.7	2.29	28.6	25%	64.9%	50.1%	54.6%	26.2 ± 6.2%	55 ± 3.6%	28%	74.9%	28.4%
CCC/C=C/C=C/C(=O)O[C@H]1/C(=C/C(=O)OC)C[C@H]2C[C@H]([C@@H](C)O)OC(=O)C[C@H](O)C[C@@H]3C[C@H](OC(C)=O)C(C)(C)[C@](O)(C[C@@H]4C/C(=C/C(=O)OC)C[C@H](/C=C/C(C)(C)[C@]1(O)O2)O4)O3 [Bryostatin 1] (max concentration tested 100 nM)	1.21	7.06	0	0	0.762 ± 1.1	1.37 ± 0.77	0	2.82	0	0	0	0	2.29 ± 3.2	0	0	11.2%	19.4%	-11.5%	-14.2%	21.1 ± 2.6%	24.9 ± 3.1%	-11.8%	20.4%	7.32%
CCCS(=O)(=O)Nc1ccc(F)c(C(=O)c2c[nH]c3ncc(-c4ccc(Cl)cc4)cc23)c1F [Vemurafenib] (max concentration tested 10000 nM)	1.03	1.24	6.16	6.66	0.879 ± 1.2	0	0	3.31	0	0	0	0	0	0.417	2.82	29.3%	34.4%	70.2%	70.7%	7.31 ± 3.8%	12.6 ± 17%	1.91%	41.5%	1.68%
CC[C@@H]1C(=O)OC[C@@H]1Cc1cncn1C [Pilocarpine] (max concentration tested 40000 nM)	0	0.48	0	0	0.028 ± 0.04	0	0	0	0	0	0	0	0	0	0	3.53%	14.2%	-5.47%	-5.33%	-0.921 ± 8.8%	-8.07 ± 3.1%	-5.43%	-5.95%	-0.64%
Cc1nc(C(=O)NCC(=O)O)c(O)c2ccc(Oc3ccccc3)cc12 [FG-4592] (max concentration tested 10000 nM)	5.17	5.13	0.0901	0.0248	0	0	0	0	0	0	0	0	0	0	0	49%	74.7%	13.3%	12.3%	-0.77 ± 1.2%	-7 ± 5.2%	7.03%	0.0946%	-7.68%
COc1cc(CCc2cc(NC(=O)c3ccc(N4CC(C)NC(C)C4)cc3)n[nH]2)cc(OC)c1 (configuration not stated) [AZD4547] (max concentration tested 1000 nM)	0	1.94	3.09	0	1.28 ± 0.63	2.85 ± 0.75	0	0	0	0	0	0	0.158 ± 0.22	0	0	4.91%	33.5%	22.4%	4.39%	22.2 ± 3.5%	24.6 ± 2.2%	9.11%	-2.98%	3.65%
C[C@]12CC[C@H](O)CC1=CC[C@@H]1[C@@H]2CC[C@]2(C)C(c3cccnc3)=CC[C@@H]12 [Abiraterone] (max concentration tested 5000 nM)	0	0	0.394	1.01	1.83 ± 2	0.775 ± 0.16	0	0	0	0	0	0	0.133 ± 0.19	0	0	-3.84%	3.26%	12.6%	18.7%	17.1 ± 2.1%	7.79 ± 0.37%	4.42%	3.38%	5.69%
C=CCn1c(=O)c2cnc(Nc3ccc(N4CCN(C)CC4)cc3)nc2n1-c1cccc(C(C)(C)O)n1 [MK1775] (max concentration tested 10000 nM)	6.59	23.8	14.4	17	16.3 ± 1.6	24.5 ± 0.65	15.8	16.4	14.7	0.11	5.21	9.17	16.1 ± 1.9	14.6	20.3	49.6%	88.4%	67.6%	85.9%	83.3 ± 2%	107.2 ± 0.38%	89.8%	96.8%	82.5%
CCOc1cc2ncc(C#N)c(Nc3ccc(OCc4ccccn4)c(Cl)c3)c2cc1NC(=O)/C=C/CN(C)C [Neratinib] (max concentration tested 1000 nM)	6.05	5.51	4.77	5.85	4 ± 1.6	5.12 ± 0.93	3.74	3.09	2.34	0	0	0	0	0	0	65.7%	65.3%	70.6%	75.8%	49.1 ± 15%	64.8 ± 7.9%	40.5%	38.6%	46.7%
Oc1ccc2c(c1)CC[C@H](c1ccccc1)[C@@H]2c1ccc(OCCN2CCCC2)cc1 [Lasofoxifene] (max concentration tested 1000 nM)	1.43	0	0	0	0	0.222 ± 0.31	0	0	0	0	0	0	0	0	0	21.2%	8.81%	17.1%	9.44%	6.44 ± 1.6%	10.5 ± 10%	-2.62%	4.5%	-1.77%
